These results are taken from a melting point compilation (Tetko et al.; mined from patent text by program, amines drawn as free bases though some values may be those of a salt).

SMILES strings stand for the structures. Where only a bound is given, the exact number is not on record here.

A word on the melting point: it is the temperature, or range, at which the solid turns liquid. Turning to `CCNC(=O)c1ccc(N2CCN(Cc3cc4c(c(OC)c3)OC(C)C(=O)N4)CC2)c(F)c1` (configuration not stated), the melting point fell in the range of 228 to 229 °C.

`O=C(CCCCCl)c1ccccc1`: the melting point is 49 to 50 °C.

Take `COCCON=C(C1=C(O)C(=O)N(c2ccc(C)nn2)C1c1ccc(OC(F)(F)F)cc1)c1ccc(C(C)C)cc1` (configuration not stated): the melting point lay within 115 to 118 °C.

As for `CCCc1nc(C(C)(C)O)c(C(=O)OCOC(=O)C(C)(C)C)n1Cc1ccc(-c2ccccc2C(=O)O)cc1`, the melting point lay in the range of 170 to 173 °C.

Compound `CCn1c(=O)c(-c2c(Cl)cccc2Cl)cc2cnc(Nc3ccc(OC)cc3)nc21` showed a melting point of 213 to 215 °C.

The compound `N#CNc1cc(F)ccc1N1CCOCC1` displayed a melting point of 168 to 170 °C.

In turn, `O=C(O)c1ccc(C=C2CCc3cc(OCCn4ccnc4)ccc3C2=O)cc1` came in with a melting point of 267 to 268 °C.

`Cn1c(C(=O)c2ccc(Cc3ccc(F)cc3)o2)c(O)c(=O)n1C` showed a melting point of 110 to 111 °C.

Compound `O=c1[nH]c(=O)c2cccnc2[nH]1` gave a melting point of 360 °C.

In the case of `Cc1ccccc1C(=NO)C(=O)OC(C)C`, the melting point was 77 to 78 °C.

As to `O=c1ccc(C(c2ccccc2)c2ccccc2)c[nH]1`, the melting point lay in the range of 174 to 176 °C.

Take `COC(=O)C=Cc1cc2cc(NC(=O)c3cc4ccccc4o3)ccc2[nH]1`: the melting point is 259 to 260 °C.

Regarding `CCOC(=O)C(=CNCc1csnn1)C(=O)c1cc(F)c(F)cc1F`, the melting point fell in the range of 176 to 178 °C.

`CCC(=C1SCCCS1)c1ccc(Oc2ccccc2)cc1` yielded a melting point of 53 to 54 °C.

In the case of `CC(C)CN(C)c1cc2c(cc1C(F)(F)F)NC(=O)CC(c1cccc(-n3cncn3)c1)=N2`, the melting point came to 198 °C.

As to `N#Cc1ccc(C(=O)N2C[C@H](OCc3ccccc3)C[C@H]2C(=O)O)cc1`, the melting point lay in the range of 58 to 60 °C.

`CN(C)CC(C)(C)CNc1nccc(-c2c(-c3ccc(F)cc3Cl)nc3occn23)n1`: the melting point lay within 124 to 126 °C.

`CC(C)(C)c1cc(C(c2ccccc2)c2cc(C(C)(C)C)cc(C(C)(C)C)c2O)c(O)c(C(C)(C)C)c1`: the melting point is 165 to 167 °C.

`COC(=O)c1cc2cc(OC)c(OC)cc2c(C)c1C(=O)OC` returned a melting point of 142 to 144 °C.

The compound `CCOP(=O)(Cc1nnc2c(=O)[nH]c3cc(C(F)(F)F)c(N)cc3n12)OCC` registered a melting point of 260 to 263 °C.

Regarding `COc1ccccc1Cn1c(=O)c2c(N3CCNCC3)cc(Cl)cc2n(Cc2ccccc2)c1=O`, the melting point fell in the range of 122 to 125 °C.

As to `CC(C)(C)c1ccc(C=NOCc2ccc(CC(=O)O)cc2)cc1`, the melting point fell in the range of 93.3 to 96.2 °C.

As to `Cc1cc(C(=O)NC(=O)NC2CCCCC2)no1`, the melting point was determined as 180 °C.

For the compound `CN(C)C(=O)n1nc(C(C)(C)C)cc1S(C)(=O)=O`, the melting point lay within 126 to 128 °C.

As to `Cc1ccc2c(c1)nnn2C1(c2ccccc2)OC(=O)c2cccc([N+](=O)[O-])c21` (configuration not stated), the melting point lay in the range of 240 to 248 °C.

The compound `CC(C)N1CCC(Nc2nc3cncnc3n2Cc2ccc(F)cc2)CC1` came in with a melting point of 186 °C.

`COC(=S)NC[C@H]1CN(c2ccc(-c3nc(Cn4cncn4)cs3)c(F)c2)C(=O)O1` gave a melting point of 189 to 191 °C.

`Nc1ccccc1NC(=O)c1cc2cccc(OCc3ccccn3)c2o1` returned a melting point of 105 to 135 °C.

`CCCCCCCCNC(=N)NC#N` showed a melting point of 69 to 74 °C.

Turning to `COc1cc2c(c(Cl)c1Cl)C(=O)C(C)C2` (configuration not stated), the melting point was found to be 129 °C.

In the case of `Cc1cc(CCCCc2cc(C)c(O)c(C(C)(C)C)c2)cc(C(C)(C)C)c1O`, the melting point is 106 to 107 °C.

On to `O=C(CN1CCC(Cc2ccccc2)CC1)Nc1ccc2[nH]c(=O)[nH]c2c1`, for which the melting point was determined as 270 °C.

`NC(=O)N1C(=O)C(=C(OC(=O)C=Cc2ccccc2)c2cccs2)c2cc(F)c(Cl)cc21` gave a melting point of 214 to 215 °C.

As to `COc1cc2c(c3c1OC(C)(C)C3)C(c1ccc(=O)n(C)c1)=NC(C)(C)C2`, the melting point was in the range of 158 to 159 °C.

`O=C(O)CCCn1ccnc1`: the melting point lay within 125 to 126 °C.

In turn, `CCOCc1nc2c(N)nc3cc(OCCCc4cccc(N)c4)ccc3c2n1CC(C)(C)O` came in with a melting point of 164 to 166 °C.

Compound `Nc1cccc(C2=NNC(=O)C3CC23)c1` (configuration not stated) yielded a melting point of 192 to 193 °C.

Compound `CCn1c(=O)c2c(nc(/C=C/c3cc(OC)ccc3OC(C)=O)n2C)n(CC)c1=O` showed a melting point of 186 to 187 °C.

The compound `Cn1c(CC#N)ccc1C(=O)c1ccccc1` registered a melting point of 106 to 108 °C.

Consider `CCC(CC)Oc1cc(C)nc(Nc2c(C)cc(C)cc2C)c1`, for which the melting point fell in the range of 98 to 100 °C.

The compound `NC(=O)C1=C(C(=O)Nc2cc(OC3CCCC3)c(Cl)cc2F)CCCC1` had a melting point of 200 to 201 °C.

Turning to `NS(=O)(=O)c1cc2cc(N3CCOCC3)ccc2s1`, the melting point was 155 to 156 °C.

`O=S(=O)(CCCCl)Nc1ccccc1OCc1ccc2ccccc2n1` showed a melting point of 100 to 101 °C.

With `COc1cc(NC(C)=O)ccc1N1C(=O)C(C)(c2ccccc2Cl)c2cc(Cl)ccc21` (configuration not stated), the melting point turned out to be 83 °C.

For `Nc1cccc2c(OCc3ccccc3)ccnc12`, the melting point turned out to be 115 °C.

With `Cc1c(F)cccc1C(=O)Nc1ccc(C(=O)N2Cc3ccccc3Cc3ccccc32)cc1Cl`, the melting point is 254 to 256 °C.

Consider `Nc1c2c(=O)c3ccccc3c(=O)c2c(N)c2c(=O)n(CCCCCCO)c(=O)c12`, for which the melting point was in the range of 210 to 211 °C.

In turn, `COc1cc2c(cc1O)CC1CN(C)Cc3c(O)c(OC)cc-2c31` (configuration not stated) had a melting point of 300 °C.

`COc1cc(/C=C/C(=O)O)cc(OC)c1OCc1ccccc1` displayed a melting point of 102 °C.

With `CCCCCCCCCCCCCCCC(=O)OCC1OC(N2CNC(N)=NC2=O)CC1O` (configuration not stated), the melting point lay in the range of 123 to 124 °C.

`CCOCc1nc2c(N)nc3cc(OCc4cccc(N)c4)ccc3c2n1CC(C)C` gave a melting point of 228 to 230 °C.

As for `CC(C)(C)C(=O)C(=[N+]=[N-])S(=O)(=O)C1CCCCC1`, the melting point lay within 80.5 to 82 °C.

`N#CC=Cc1ccc(C(=O)Cl)cc1` displayed a melting point of 154 °C.

`CCCCCS(=O)(=O)NC(=O)/C=C/c1ccc(OCCOC)cc1Nc1ccc(C(F)(F)F)cc1Cl`: the melting point was 174 to 175 °C.

On to `O=C(c1ccc(Nc2ccnc3cc(C(F)(F)F)ccc23)cc1)N1CCN(S(=O)(=O)c2ccc(F)cc2)CC1`, for which the melting point was 251 to 253 °C.

Compound `CCOC(=O)c1cn(-c2cnsn2)c2nc(Cl)c(F)cc2c1=O` showed a melting point of 175 to 178 °C.

`CCCCc1sc(C(=O)O)c2c1-c1c(cnn1C)CC2` registered a melting point of 286 to 287 °C.

`Cc1ccc2cc(C3=NCCS3)[nH]c2c1NS(=O)(=O)c1cccs1` came in with a melting point of 183 to 184 °C.

Compound `COc1ccc(Cn2cnc3c2CC(C(=O)O)N(C(=O)C(c2ccccc2)c2ccccc2)C3)cc1C` (configuration not stated) gave a melting point of 222 to 225 °C.

On to `N=C(Nc1cc(Cl)cc(NC(=O)/C=C/c2ccccc2Cl)c1)c1cccs1`, for which the melting point lay within 123 to 124 °C.

In turn, `CCOC(=O)c1ccsc1NC(=O)NCCN1CCN(c2ccc(OC)cc2)CC1` showed a melting point of 103 to 106 °C.

With `C=Cc1cnc2c(NC(=O)c3c(Cl)cccc3Cl)cccc2c1Cn1ccnc1`, the melting point fell in the range of 189 to 191 °C.

On to `O=C(Nc1nnn[nH]1)c1ccccc1[N+](=O)[O-]`, for which the melting point lay within 272 to 273 °C.

`CCOC(Cc1ccc(OCCn2ccc3ccc(C(=O)C4CC4)nc32)cc1)C(=O)OC` (configuration not stated) yielded a melting point of 159 °C.

Regarding `CCNC(=S)NNC(=O)C(F)(F)F`, the melting point was 170 °C.

As to `CCOc1ccccc1OCC(O)CNC(C)=CC(=O)c1cccnc1` (single isomer, unassigned; (-)), the melting point amounted to 94 °C.

Regarding `CC1(C)CCC(C)(C)c2c(C(O)C#C[Si](C)(C)C)cc(-c3ccccc3)cc21` (configuration not stated), the melting point was determined as 145 °C.

`Cc1cccc(C(O)CN2CCNC2=S)c1` (configuration not stated) had a melting point of 100 °C.

With `O=C(OCc1cc(F)nc(F)c1F)c1ccccc1`, the melting point was in the range of 73 to 76 °C.

With `CCCn1c(COC)nc2c(N)nc3ccc(OCCC4CCCN4C)cc3c21` (configuration not stated), the melting point was in the range of 155 to 157 °C.

`O=c1[nH]c(=O)c2c3c(cc([N+](=O)[O-])c2[nH]1)OCO3` showed a melting point of 285 °C.

Turning to `CCCOc1ccc(S(=O)(=O)N2CCN(CC)CC2)cc1-c1nc2cc(N)c([N+](=O)[O-])cc2c(=O)[nH]1`, the melting point is 248 to 250 °C.

In the case of `CCN1c2ncc(CCc3cccc(N=[N+]=[N-])c3)cc2C(=O)N(C)c2ccc(Cl)nc21`, the melting point was in the range of 104 to 105 °C.

`Clc1ccc(C2=NNC(c3cccnc3)S2)cc1` (configuration not stated) gave a melting point of 106 to 108 °C.

With `Cc1cc(NC2=NCCN2)n(C(C)C)n1`, the melting point is 173 to 175 °C.

`CC(C)C(C)(C)[Si](C)(C)Oc1ccc2c(c1)c(I)c1n2CCC1` gave a melting point of 97 to 98 °C.

For `CC(C)(CCC(=O)N[C@H](Cc1ccc(-c2ccccc2)cc1)C(=O)NCCCCNc1ncccn1)C(=O)O`, the melting point was 85 to 98 °C.

As for `Nc1ccccc1C(=O)c1ccccn1`, the melting point fell in the range of 145 to 146 °C.

For the compound `O=C(O)c1ccc(-c2cc(-c3ccc(C(F)(F)F)cc3)on2)cc1`, the melting point was greater than 300 °C.

As for `N#Cc1ccc(N2CCN(CCC3CCc4ccccc43)CC2)cc1` (configuration not stated), the melting point was in the range of 157 to 158 °C.

`CCCCCCCCCCCCCCCCCCOc1cc(OCc2ccccc2)cc(N(CC(=O)OC)CC(=O)OC)c1` gave a melting point of 66 to 68 °C.

Consider `CCOc1cc2ncc3c(N)nc(-c4cccnc4)cc3c2cc1OCC`, for which the melting point fell in the range of 241 to 245 °C.

Regarding `COC(=O)C(=O)c1ccc(OC/C=C/c2ccc(F)cc2)cc1`, the melting point lay in the range of 84 to 85 °C.

Compound `O=C(c1ccccc1)c1cc2c([N+](=O)[O-])c(O)c(O)cc2oc1=O` displayed a melting point of 94 to 96 °C.

Compound `Cc1c(-c2cc(Cl)cc(Cl)c2)ccc(N)c1C#N` showed a melting point of 182 °C.

With `CN1CCC(Cn2nc(-c3c(-c4ccccc4)nn4ccccc34)ccc2=O)CC1`, the melting point lay in the range of 180 to 181 °C.

`CC(=O)Nc1nc2c(s1)-c1c(cnn1-c1ccc(Cl)cc1)C2` returned a melting point of 296 to 305 °C.
